Measurements as given in article PMC2814954 (Biochemical pharmacology, 2009).

Experiments:
HepG2 cells = assay: C1-BODIPY-C12 fatty acid uptake inhibition in HepG2 cells; assay type: cell-based; conditions: Homo sapiens, HepG2, read-out: HepG2 IC50
Caco-2 cells [1] = assay: Reversibility of fatty acid uptake inhibition after 24 h recovery; assay type: cell-based, human; conditions: compound 40 μM for 1 h, washed, mean ± SD
[2] = test system: long chain acyl-CoA synthetase (Acsl); assay: Oleoyl-CoA synthetase; assay type: biochemical, human; conditions: Caco-2 cells pretreated 1 h; for Oleoyl CoA synthetase activity after compound treatment: rinsed, total cell extracts
3T3-L1 adipocytes = assay: C1-BODIPY-C12 fatty acid uptake inhibition in 3T3-L1 adipocytes; assay type: cell-based; conditions: Mus musculus, 3T3-L1, read-out: 3T3-L1 Adipocytes IC50
Caco-2 cells [3] = assay: MTT cytotoxicity assay in Caco-2 cells; conditions: 24 h
Caco-2 cells [4] = assay: Glucose; assay type: cell-based, human; conditions: 1 h preincubation
Caco-2 cells [5] = assay: C1-BODIPY-C12 fatty acid uptake inhibition in Caco-2 cells; assay type: cell-based, human; conditions: for IC50: Homo sapiens, Caco-2, read-out: Caco-2 IC50; for % Transport Standard Assay: compound 40 μM, Caco-2 cells, % of no-compound control, mean ± SD
[6] = 50 μM, Caco-2 cells (10 times the IC50 dosage)

## COc1cc(/C=C2/SC(=S)N(c3cccc(Cl)c3)C2=O)cc(Br)c1O [CB-2, (5E)-5-[(3-bromo-4-hydroxy-5-methoxyphenyl)methylene]-3-(3-chlorophenyl)-2-thioxothiazolidin-4-one]
HepG2 cells
  IC50: 7.55 ± 1.23 µM
Caco-2 cells [1]
  % Transport after 24 Hour Recovery: 93 ±13%
[2]; 50 μM (10 times the IC50), cell extracts
  Inhibition of oleoyl CoA synthetase activity: about 50%
3T3-L1 adipocytes
  IC50: 231 ± 33.5 µM
Caco-2 cells [3]; [6]
  Cellular toxicity (MTT assay): not toxic
Caco-2 cells [4]; 20 μM
  2-NBDG glucose transport: not affected
Caco-2 cells [5]
  IC50: 3.99 ± 0.32 µM
  % Transport Standard Assay: 46 ± 3%

## O=c1cc(-c2ccc([N+](=O)[O-])cc2)nc2c(-c3ccc(Cl)cc3)c(Cc3ccccc3)[nH]n12 [CB-5, 2-benzyl-3-(4-chlorophenyl)-5-(4-nitrophenyl)-1H-pyrazolo[5,1-b]pyrimidin-7-one]
HepG2 cells
  IC50: 10.2 ± 1.26 µM
Caco-2 cells [1]
  % Transport after 24 Hour Recovery: 88 ±18%
[2]
  Oleoyl CoA synthetase activity after compound treatment: not reduced
3T3-L1 adipocytes
  IC50: 901 ± 205 µM
Caco-2 cells [3]; [6]
  Cellular toxicity (MTT assay): not toxic
Caco-2 cells [4]; 20 μM
  2-NBDG glucose transport: not affected
Caco-2 cells [5]
  IC50: 6.34 ± 0.93 µM
  % Transport Standard Assay: 54 ± 1%

## Oc1c(C2=NCCNC(C(F)(F)F)=C2)ccc2ccccc12 [CB-6, 2-[7-(trifluoromethyl)-2,3-dihydro-1H-1,4-diazepin-5-yl]naphthalen-1-ol]
Caco-2 cells [1]
  % Transport after 24 Hour Recovery: 74 ± 12%
[2]
  Oleoyl CoA synthetase activity after compound treatment: not reduced
Caco-2 cells [3]; [6]
  Cellular toxicity (MTT assay): not toxic
Caco-2 cells [4]; 20 μM
  2-NBDG glucose transport: not affected
Caco-2 cells [5]
  IC50: 4.93 ± 0.4 µM

## O=C1C=CC=CC1=C1NNC2(S1)C(=O)Nc1ccc(Br)cc12 (stereo not drawn) [CB-16, 5′-bromo-5-(6-oxocyclohexa-2,4-dien-1-ylidene)spiro[1,3,4-thiadiazolidine-2,3′-1H-indole]-2′-one]
Caco-2 cells [1]
  % Transport after 24 Hour Recovery: 99 ± 16%
[2]
  Oleoyl CoA synthetase activity after compound treatment: not reduced
Caco-2 cells [3]; [6]
  Cellular toxicity (MTT assay): not toxic
Caco-2 cells [4]; 20 μM
  2-NBDG glucose transport: not affected
Caco-2 cells [5]
  IC50: 6.66 ± 0.64 µM

## OCC(CCc1c[nH]c2ccccc12)c1c[nH]c2ccccc12 (stereo not drawn) [NCI-3, 2,4-bis(1H-indol-3-yl)butan-1-ol]
HepG2 cells
  IC50: 84.1 ± 14.1 µM
[2]
  Oleoyl CoA synthetase activity after compound treatment: not reduced
3T3-L1 adipocytes
  IC50: 143 ± 22.4 µM
Caco-2 cells [3]; 100 μM, Caco-2 cells
  Cellular toxicity (MTT assay): not toxic
Caco-2 cells [4]; 50 μM
  2-NBDG glucose transport: reduced 2-NBDG transport slightly
Caco-2 cells [5]
  IC50: 29.2 ± 3.64 µM
  % Transport Standard Assay: 52 ± 2%
